# Laboratory results published in US10004701B2, “Methods and compositions for treating infection” (UNIVERSITY OF ROCHESTER, priority 2012, dated 2018).
# Counter-ions that a name gives are not always drawn. Like-named read-outs stand apart in the source and are kept apart here.
# Legend:
# Assay in all cases: AK assay 384-well format, Prestwick library screening
# E. faecium = assay type: cell-based, Enterococcus faecium; conditions: Enterococcus faecium, 3 h, 50 μM final drug concentration
# [1] = tested on: S. aureus strain USA300-0114; assay type: cell-based, Staphylococcus aureus; conditions: Staphylococcus aureus, USA300, 3 h, 50 μM final drug concentration
# K. pneumoniae = assay type: cell-based, Klebsiella pneumoniae; conditions: Klebsiella pneumoniae, 3 h, 50 μM final drug concentration
# [2] = tested on: A. baumannii strain 98-37-09; assay type: cell-based, Acinetobacter baumannii; conditions: Acinetobacter baumannii, 983709, 3 h, 50 μM final drug concentration
# P. aeruginosa = assay type: cell-based, Pseudomonas aeruginosa; conditions: Pseudomonas aeruginosa, 3 h, 50 μM final drug concentration
# E. cloacae = assay type: cell-based, Enterobacter cloacae; conditions: Enterobacter cloacae, 3 h, 50 μM final drug concentration
# E. coli = assay type: cell-based, Escherichia coli; conditions: Escherichia coli, 3 h, 50 μM final drug concentration
# [3] = planktonic E. faecium, 384-well, cutoff for positive-scoring molecules 3-fold increase, read-out: AK-based Prestwick Library Screening Results: E. faecium (increase in extracellular AK activity)
# [4] = planktonic S. aureus, 384-well, cutoff for positive-scoring molecules 3-fold increase, read-out: AK-based Prestwick Library Screening Results: S. aureus (increase in extracellular AK activity)
# [5] = planktonic K. pneumoniae, 384-well, cutoff for positive-scoring molecules 3-fold increase, read-out: AK-based Prestwick Library Screening Results: K. pneumoniae (increase in extracellular AK activity)
# [6] = planktonic A. baumannii, 384-well, cutoff for positive-scoring molecules 3-fold increase, read-out: AK-based Prestwick Library Screening Results: A. baumannii (increase in extracellular AK activity)
# [7] = planktonic P. aeruginosa, 384-well, cutoff for positive-scoring molecules 3-fold increase, read-out: AK-based Prestwick Library Screening Results: P. aeruginosa (increase in extracellular AK activity)
# [8] = planktonic E. cloacae, 384-well, cutoff for positive-scoring molecules 3-fold increase, read-out: AK-based Prestwick Library Screening Results: E. cloacae (increase in extracellular AK activity)
# [9] = planktonic E. coli, 384-well, cutoff for positive-scoring molecules 3-fold increase, read-out: AK-based Prestwick Library Screening Results: E. coli (increase in extracellular AK activity)
# [10] = 384-well format, cutoff for positive-scoring molecules 3-fold increase, read-out: AK-based Prestwick Library Screening Results, E. faecium (increase in extracellular AK activity)
# [11] = 384-well format, cutoff for positive-scoring molecules 3-fold increase, read-out: AK-based Prestwick Library Screening Results, S. aureus (increase in extracellular AK activity)
# [12] = 384-well format, cutoff for positive-scoring molecules 3-fold increase, read-out: AK-based Prestwick Library Screening Results, K. pneumoniae (increase in extracellular AK activity)
# [13] = 384-well format, cutoff for positive-scoring molecules 3-fold increase, read-out: AK-based Prestwick Library Screening Results, A. baumannii (increase in extracellular AK activity)
# [14] = 384-well format, cutoff for positive-scoring molecules 3-fold increase, read-out: AK-based Prestwick Library Screening Results, P. aeruginosa (increase in extracellular AK activity)
# [15] = 384-well format, cutoff for positive-scoring molecules 3-fold increase, read-out: AK-based Prestwick Library Screening Results, E. cloacae (increase in extracellular AK activity)
# [16] = 384-well format, cutoff for positive-scoring molecules 3-fold increase, read-out: AK-based Prestwick Library Screening Results, E. coli (increase in extracellular AK activity)
# [17] = cutoff for positive-scoring molecules 3-fold increase, read-out: AK-based Prestwick Library Screening Results, E. faecium (fold increase in extracellular AK activity)
# [18] = cutoff for positive-scoring molecules 3-fold increase, read-out: AK-based Prestwick Library Screening Results, S. aureus (fold increase in extracellular AK activity)
# [19] = cutoff for positive-scoring molecules 3-fold increase, read-out: AK-based Prestwick Library Screening Results, K. pneumoniae (fold increase in extracellular AK activity)
# [20] = cutoff for positive-scoring molecules 3-fold increase, read-out: AK-based Prestwick Library Screening Results, A. baumannii (fold increase in extracellular AK activity)
# [21] = cutoff for positive-scoring molecules 3-fold increase, read-out: AK-based Prestwick Library Screening Results, P. aeruginosa (fold increase in extracellular AK activity)
# [22] = cutoff for positive-scoring molecules 3-fold increase, read-out: AK-based Prestwick Library Screening Results, E. cloacae (fold increase in extracellular AK activity)
# [23] = cutoff for positive-scoring molecules 3-fold increase, read-out: AK-based Prestwick Library Screening Results, E. coli (fold increase in extracellular AK activity)
compound,measurement,setting,value
CCOC(=O)C1=C(C)NC(C)=C(C(=O)OC)C1c1cccc(Cl)c1Cl (stereo not drawn) [Felodipine],fold induction at 50 µM,"E. faecium; planktonic, cutoff for positive 3-fold increase, read-out: AK-based Prestwick Library Screening Results, E. faecium (fold increase in extracellular AK activity)",1.3
same,fold induction at 50 µM,"[1]; planktonic, cutoff for positive 3-fold increase, read-out: AK-based Prestwick Library Screening Results, S. aureus (fold increase in extracellular AK activity)",2.5
same,fold induction at 50 µM,"K. pneumoniae; planktonic, cutoff for positive 3-fold increase, read-out: AK-based Prestwick Library Screening Results, K. pneumoniae (fold increase in extracellular AK activity)",1
same,fold induction at 50 µM,"[2]; planktonic, cutoff for positive 3-fold increase, read-out: AK-based Prestwick Library Screening Results, A. baumannii (fold increase in extracellular AK activity)",3
same,fold induction at 50 µM,"P. aeruginosa; planktonic, cutoff for positive 3-fold increase, read-out: AK-based Prestwick Library Screening Results, P. aeruginosa (fold increase in extracellular AK activity)",1
same,fold induction at 50 µM,"E. cloacae; planktonic, cutoff for positive 3-fold increase, read-out: AK-based Prestwick Library Screening Results, E. cloacae (fold increase in extracellular AK activity)",1.7
same,fold induction at 50 µM,"E. coli; planktonic, cutoff for positive 3-fold increase, read-out: AK-based Prestwick Library Screening Results, E. coli (fold increase in extracellular AK activity)",1.2
COC(=O)Nc1nc2ccc(Sc3ccccc3)cc2[nH]1 [Fenbendazole],fold induction at 50 µM,E. faecium; [3],0.9
same,fold induction at 50 µM,[1]; [4],0.6
same,fold induction at 50 µM,K. pneumoniae; [5],0.7
same,fold induction at 50 µM,[2]; [6],0.9
same,fold induction at 50 µM,P. aeruginosa; [7],0.9
same,fold induction at 50 µM,E. cloacae; [8],1.3
same,fold induction at 50 µM,E. coli; [9],0.9
O=C(O)CCC(=O)c1ccc(-c2ccccc2)cc1 [Fenbufen],fold induction at 50 µM,E. faecium; [3],0.8
same,fold induction at 50 µM,[1]; [4],0.7
same,fold induction at 50 µM,K. pneumoniae; [5],0.8
same,fold induction at 50 µM,[2]; [6],1
same,fold induction at 50 µM,P. aeruginosa; [7],0.8
same,fold induction at 50 µM,E. cloacae; [8],1.6
same,fold induction at 50 µM,E. coli; [9],0.8
CC(NCCC(c1ccccc1)c1ccccc1)c1ccccc1 (stereo not drawn) [Fendiline hydrochloride],fold induction at 50 µM,E. faecium; [10],1.1
same,fold induction at 50 µM,[1]; [11],0.8
same,fold induction at 50 µM,K. pneumoniae; [12],0.8
same,fold induction at 50 µM,[2]; [13],1.5
same,fold induction at 50 µM,P. aeruginosa; [14],1.1
same,fold induction at 50 µM,E. cloacae; [15],0.9
same,fold induction at 50 µM,E. coli; [16],1
CC(C)OC(=O)C(C)(C)Oc1ccc(C(=O)c2ccc(Cl)cc2)cc1 [Fenofibrate],fold induction at 50 µM,E. faecium; [10],0.8
same,fold induction at 50 µM,[1]; [11],0.8
same,fold induction at 50 µM,K. pneumoniae; [12],0.6
same,fold induction at 50 µM,[2]; [13],0.7
same,fold induction at 50 µM,P. aeruginosa; [14],0.8
same,fold induction at 50 µM,E. cloacae; [15],1.2
same,fold induction at 50 µM,E. coli; [16],0.8
CC(C(=O)O)c1cccc(Oc2ccccc2)c1 (stereo not drawn) [Fenoprofen calcium salt dihydrate],fold induction at 50 µM,"E. faecium; planktonic, cutoff for positive-scoring molecules 3-fold increase, read-out: AK-based Prestwick Library Screening Results, E. faecium (fold increase in extracellular AK activity)",0.9
same,fold induction at 50 µM,"[1]; planktonic, cutoff for positive-scoring molecules 3-fold increase, read-out: AK-based Prestwick Library Screening Results, S. aureus (fold increase in extracellular AK activity)",0.8
same,fold induction at 50 µM,"K. pneumoniae; planktonic, cutoff for positive-scoring molecules 3-fold increase, read-out: AK-based Prestwick Library Screening Results, K. pneumoniae (fold increase in extracellular AK activity)",0.7
same,fold induction at 50 µM,"[2]; planktonic, cutoff for positive-scoring molecules 3-fold increase, read-out: AK-based Prestwick Library Screening Results, A. baumannii (fold increase in extracellular AK activity)",0.8
same,fold induction at 50 µM,"P. aeruginosa; planktonic, cutoff for positive-scoring molecules 3-fold increase, read-out: AK-based Prestwick Library Screening Results, P. aeruginosa (fold increase in extracellular AK activity)",0.8
same,fold induction at 50 µM,"E. cloacae; planktonic, cutoff for positive-scoring molecules 3-fold increase, read-out: AK-based Prestwick Library Screening Results, E. cloacae (fold increase in extracellular AK activity)",1.4
same,fold induction at 50 µM,"E. coli; planktonic, cutoff for positive-scoring molecules 3-fold increase, read-out: AK-based Prestwick Library Screening Results, E. coli (fold increase in extracellular AK activity)",0.8
CC(Cc1ccc(O)cc1)NCC(O)c1cc(O)cc(O)c1 (stereo not drawn) [Fenoterol hydrobromide],fold induction at 50 µM,"E. faecium; planktonic E. faecium, 384-well, […], read-out: AK-based Prestwick Library Screening Results: E. faecium (increase in extracellular AK activity)",1.1
same,fold induction at 50 µM,"[1]; planktonic S. aureus, 384-well, […], read-out: AK-based Prestwick Library Screening Results: S. aureus (increase in extracellular AK activity)",1
same,fold induction at 50 µM,"K. pneumoniae; planktonic K. pneumoniae, 384-well, […], read-out: AK-based Prestwick Library Screening Results: K. pneumoniae (increase in extracellular AK activity)",0.9
same,fold induction at 50 µM,"[2]; planktonic A. baumannii, 384-well, […], read-out: AK-based Prestwick Library Screening Results: A. baumannii (increase in extracellular AK activity)",1.3
same,fold induction at 50 µM,"P. aeruginosa; planktonic P. aeruginosa, 384-well, […], read-out: AK-based Prestwick Library Screening Results: P. aeruginosa (increase in extracellular AK activity)",1.1
same,fold induction at 50 µM,"E. cloacae; planktonic E. cloacae, 384-well, […], read-out: AK-based Prestwick Library Screening Results: E. cloacae (increase in extracellular AK activity)",1.4
same,fold induction at 50 µM,"E. coli; planktonic E. coli, 384-well, […], read-out: AK-based Prestwick Library Screening Results: E. coli (increase in extracellular AK activity)",1.3
O=C1NCC2(CCN(CCc3ccccc3)CC2)O1 [Fenspiride hydrochloride],fold induction at 50 µM,E. faecium; [3],1
same,fold induction at 50 µM,[1]; [4],1.1
same,fold induction at 50 µM,K. pneumoniae; [5],1
same,fold induction at 50 µM,[2]; [6],1.2
same,fold induction at 50 µM,P. aeruginosa; [7],1.1
same,fold induction at 50 µM,E. cloacae; [8],1.6
same,fold induction at 50 µM,E. coli; [9],1.3
COc1cc(C(=O)OC2CC3CCC(C2)N3C)ccc1O (stereo not drawn) [Fillalbin],fold induction at 50 µM,E. faecium; [17],1
same,fold induction at 50 µM,[1]; [18],1
same,fold induction at 50 µM,K. pneumoniae; [19],0.8
same,fold induction at 50 µM,[2]; [20],0.9
same,fold induction at 50 µM,P. aeruginosa; [21],1.2
same,fold induction at 50 µM,E. cloacae; [22],1.8
same,fold induction at 50 µM,E. coli; [23],1.2
CC(C)(C)NC(=O)[C@H]1CC[C@H]2[C@@H]3CC[C@H]4NC(=O)C=C[C@]4(C)[C@H]3CC[C@]12C [Finasteride],fold induction at 50 µM,E. faecium; [17],1.1
same,fold induction at 50 µM,[1]; [18],1
same,fold induction at 50 µM,K. pneumoniae; [19],0.9
same,fold induction at 50 µM,[2]; [20],1.2
same,fold induction at 50 µM,P. aeruginosa; [21],1.1
same,fold induction at 50 µM,E. cloacae; [22],1.8
same,fold induction at 50 µM,E. coli; [23],1.1
O=C(COc1ccc(Cl)cc1)N1CCN(Cc2ccc3c(c2)OCO3)CC1 [Fipexide hydrochloride],fold induction at 50 µM,E. faecium; [3],1.1
same,fold induction at 50 µM,[1]; [4],0.9
same,fold induction at 50 µM,K. pneumoniae; [5],1.1
same,fold induction at 50 µM,[2]; [6],1
same,fold induction at 50 µM,P. aeruginosa; [7],1
same,fold induction at 50 µM,E. cloacae; [8],1.3
same,fold induction at 50 µM,E. coli; [9],1.3
Cc1c(-c2ccccc2)oc2c(C(=O)OCCN3CCCCC3)cccc2c1=O [Flavoxate hydrochloride],fold induction at 50 µM,E. faecium; [10],0.9
same,fold induction at 50 µM,[1]; [11],0.6
same,fold induction at 50 µM,K. pneumoniae; [12],0.6
same,fold induction at 50 µM,[2]; [13],0.5
same,fold induction at 50 µM,P. aeruginosa; [14],0.6
same,fold induction at 50 µM,E. cloacae; [15],0.6
same,fold induction at 50 µM,E. coli; [16],0.5
